# Test results published in ChEMBL document CHEMBL1132484, “New alpha-substituted succinate-based hydroxamic acids as TNFalpha convertase inhibitors” (J Med Chem, 1999).
# Legend:
# [1] = biological target: T1, Disintegrin and metalloproteinase domain-containing protein 17 (Homo sapiens, UniProt P78536); test: Inhibitory activity against Tumor necrosis factor alpha-converting enzyme (TACE) in blood.; format: tissue-based
# [2] = biological target: T1, Disintegrin and metalloproteinase domain-containing protein 17; test: Inhibition of TNF(tumor necrosis factor) in human blood; format: functional
# Interstitial collagenase = biological target: T2, Interstitial collagenase (Homo sapiens, UniProt P03956); test: Inhibitory activity against MMP-1 (Matrix metalloprotease-1)
# T2 sequence (P03956 whole entry): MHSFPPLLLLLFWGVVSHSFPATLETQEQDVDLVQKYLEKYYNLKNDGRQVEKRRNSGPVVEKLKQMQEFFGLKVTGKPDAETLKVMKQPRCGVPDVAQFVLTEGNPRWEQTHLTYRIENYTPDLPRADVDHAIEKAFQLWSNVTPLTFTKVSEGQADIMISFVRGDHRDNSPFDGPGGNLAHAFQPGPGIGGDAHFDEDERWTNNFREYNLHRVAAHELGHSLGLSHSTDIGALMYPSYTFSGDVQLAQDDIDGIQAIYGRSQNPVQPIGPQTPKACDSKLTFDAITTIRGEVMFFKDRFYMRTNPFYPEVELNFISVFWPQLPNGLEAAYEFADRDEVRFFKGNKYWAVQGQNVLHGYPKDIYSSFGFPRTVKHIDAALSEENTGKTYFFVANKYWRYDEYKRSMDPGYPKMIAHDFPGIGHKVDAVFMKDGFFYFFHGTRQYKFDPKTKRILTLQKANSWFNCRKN
# Neutrophil collagenase = Neutrophil collagenase (Homo sapiens, UniProt P22894); test: Inhibition of MMP-8 (matrix metalloprotease-8)
# Sequence of Neutrophil collagenase (P22894 whole entry): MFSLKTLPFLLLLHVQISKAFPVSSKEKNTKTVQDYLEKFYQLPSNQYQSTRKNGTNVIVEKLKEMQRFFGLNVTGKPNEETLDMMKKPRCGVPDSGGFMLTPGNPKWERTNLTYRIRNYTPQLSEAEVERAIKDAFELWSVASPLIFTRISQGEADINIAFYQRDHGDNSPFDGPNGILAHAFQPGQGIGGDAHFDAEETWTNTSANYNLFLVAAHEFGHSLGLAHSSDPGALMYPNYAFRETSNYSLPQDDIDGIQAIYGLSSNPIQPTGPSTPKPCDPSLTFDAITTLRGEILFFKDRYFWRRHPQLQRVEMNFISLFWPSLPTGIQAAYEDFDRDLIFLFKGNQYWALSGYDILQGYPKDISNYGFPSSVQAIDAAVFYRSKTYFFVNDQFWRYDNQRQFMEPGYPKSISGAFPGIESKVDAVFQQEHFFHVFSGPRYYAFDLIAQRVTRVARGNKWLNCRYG
# T1 sequence (P78536 whole entry, the tested form may be a part): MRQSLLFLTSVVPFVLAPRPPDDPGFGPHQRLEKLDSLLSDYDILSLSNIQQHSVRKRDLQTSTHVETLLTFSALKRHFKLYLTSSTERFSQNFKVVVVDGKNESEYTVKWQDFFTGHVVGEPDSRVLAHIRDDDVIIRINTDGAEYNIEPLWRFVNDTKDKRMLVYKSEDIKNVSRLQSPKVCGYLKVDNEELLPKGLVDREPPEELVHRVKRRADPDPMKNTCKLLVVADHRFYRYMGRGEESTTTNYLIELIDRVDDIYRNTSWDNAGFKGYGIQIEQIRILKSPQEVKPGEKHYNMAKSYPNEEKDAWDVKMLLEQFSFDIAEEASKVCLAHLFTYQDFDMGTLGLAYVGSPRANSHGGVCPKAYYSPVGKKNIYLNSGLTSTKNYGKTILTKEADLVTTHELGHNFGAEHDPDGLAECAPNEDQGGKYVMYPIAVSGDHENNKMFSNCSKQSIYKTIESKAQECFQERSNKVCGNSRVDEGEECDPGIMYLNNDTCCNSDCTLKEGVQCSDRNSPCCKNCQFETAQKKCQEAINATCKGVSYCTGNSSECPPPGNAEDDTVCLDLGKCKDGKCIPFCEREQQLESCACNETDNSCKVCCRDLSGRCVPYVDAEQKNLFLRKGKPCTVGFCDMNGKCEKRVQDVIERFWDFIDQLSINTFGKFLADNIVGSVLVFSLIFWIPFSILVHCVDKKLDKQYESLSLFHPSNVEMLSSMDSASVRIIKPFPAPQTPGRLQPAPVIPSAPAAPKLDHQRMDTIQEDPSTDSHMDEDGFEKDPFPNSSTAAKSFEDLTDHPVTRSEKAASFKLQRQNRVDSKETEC
Compound,IC50 (Interstitial collagenase),IC50 [1],IC50 [2],IC50 (Neutrophil collagenase)
CNC(=O)[C@@H](NC(=O)[C@H](CC(C)C)[C@H](NS(=O)(=O)c1cccc2cnccc12)C(=O)NO)C(C)(C)C,2.6 nM,3.1 nM,1100 nM,–
CNC(=O)[C@@H](NC(=O)[C@H](CC(C)C)[C@H](NC(=O)c1cccc2cccnc12)C(=O)NO)C(C)(C)C,2.2 nM,2 nM,8000 nM,–
CNC(=O)[C@@H](NC(=O)[C@H](CC(C)C)[C@H](OCc1ccc2c(ccc(=O)n2C)c1)C(=O)NO)C(C)(C)C,0.88 nM,1 nM,1440 nM,–
CNC(=O)[C@@H](NC(=O)[C@H](CCCOCc1ccccc1)[C@H](OCc1ccc2nc(C)nc(O)c2c1)C(=O)NO)C(C)(C)C,330 nM,12 nM,–,–
CNC(=O)[C@@H](NC(=O)[C@H](CC(C)C)[C@H](NCc1cccc2cccnc12)C(=O)NO)C(C)(C)C,1.7 nM,0.23 nM,34000 nM,0.2 nM
"CNC(=O)[C@@H](NC(=O)C(CC(C)C)C(NCc1ccccc1)C(=O)NO)C(C)(C)C (single isomer, unassigned)",–,2.8 nM,6100 nM,–
"CNC(=O)[C@@H](NC(=O)C(CC(C)C)C(C(=O)NO)C1CCCC1)C(C)(C)C (single isomer, unassigned)",4 nM,1 nM,8800 nM,20 nM
"CNC(=O)[C@@H](NC(=O)C(CC(C)C)C(NS(=O)(=O)c1ccccc1)C(=O)NO)C(C)(C)C (single isomer, unassigned)",–,1.5 nM,1300 nM,–
"CNC(=O)[C@@H](NC(=O)C(CC(C)C)C(OCc1cc2c(=O)[nH]c(C)nc2cc1Br)C(=O)NO)C(C)(C)C (single isomer, unassigned)",–,0.33 nM,4300 nM,–
"CNC(=O)[C@@H](NC(=O)C(CC(C)C)C(NS(=O)(=O)c1ccc(NC(C)=O)cc1)C(=O)NO)C(C)(C)C (single isomer, unassigned)",–,1.3 nM,1200 nM,–
"CNC(=O)[C@@H](NC(=O)C(CC(C)C)C(NS(=O)(=O)c1ccc(Br)cc1)C(=O)NO)C(C)(C)C (single isomer, unassigned)",–,1.4 nM,4400 nM,–
"C=CCC(C(=O)NO)C(CC(C)C)C(=O)N[C@@H](Cc1ccccc1)C(=O)NC (single isomer, unassigned)",–,0.2 nM,2300 nM,3 nM
"CNC(=O)[C@@H](NC(=O)C(CC(C)C)C(NS(=O)(=O)c1cc(Cl)cc(Cl)c1)C(=O)NO)C(C)(C)C (single isomer, unassigned)",–,1 nM,11300 nM,–
CC1(C)SCCN(S(=O)(=O)c2ccc(Oc3ccncc3)cc2)[C@H]1C(=O)NO [PRINOMASTAT],–,5.5 nM,16600 nM,–
CNC(=O)[C@@H](NC(=O)[C@@H](CC(=O)NO)CC(C)C)C(C)(C)C [RO-319790],10 nM,20 nM,> 50000 nM,–

# Now from value to compound, other results behind:
IC50 (Interstitial collagenase),Compound,IC50 [1],IC50 [2],IC50 (Neutrophil collagenase)
2.2 nM,CNC(=O)[C@@H](NC(=O)[C@H](CC(C)C)[C@@H](C(=O)NO)N1CCOCC1)C(C)(C)C,3.4 nM,3000 nM,–
1.1 nM,CNC(=O)[C@@H](NC(=O)[C@H](CC(C)C)[C@H](NS(=O)(=O)c1cccc2cccnc12)C(=O)NO)C(C)(C)C,4.2 nM,8100 nM,–
2.8 nM,CNC(=O)[C@@H](NC(=O)[C@H](CC(C)C)[C@H](SCc1cccc2cccnc12)C(=O)NO)C(C)(C)C,0.8 nM,6200 nM,–
1.3 nM,CNC(=O)[C@@H](NC(=O)[C@H](CC(C)C)[C@H](NS(=O)(=O)c1ccc2ncnc(O)c2c1)C(=O)NO)C(C)(C)C,0.57 nM,280 nM,3.7 nM
2.4 nM,CNC(=O)[C@@H](NC(=O)[C@H](CC(C)C)[C@@H](C(=O)NO)N(C)S(=O)(=O)c1cccc2cccnc12)C(C)(C)C,4.4 nM,4500 nM,–
1.2 nM,CNC(=O)[C@@H](NC(=O)[C@H](CC(C)C)[C@H](NS(=O)(=O)c1ccc2ncccc2c1)C(=O)NO)C(C)(C)C,1.6 nM,440 nM,–
1.5 nM,"CNC(=O)[C@@H](NC(=O)C(CC(C)C)C(C(=O)NO)N(C)S(=O)(=O)c1ccccc1)C(C)(C)C (single isomer, unassigned)",0.61 nM,3000 nM,–
